Measurements from ChEMBL document CHEMBL1131502, “Thiol-induced nitric oxide release from 3-halogeno-3,4-dihydrodiazete 1,2-dioxides” (J Med Chem, 1998).

Experiments:
[1] = apparent rate constant value of the compound; format: ADME
[2] = The compound was tested for the concentration to reduce the viability of bovine aortic endothelial cell by 50% within 24 hr after compound addition.; format: functional, cell-based; details: Bos taurus
Homo sapiens = organism: Homo sapiens; experiment: The compound was tested for half-maximum inhibition of platelet aggregation; format: functional

SMILES | rate constant app [1] [M⁻¹ s⁻¹] | IC50 [2] [µM] | IC50 (Homo sapiens) [µM]
CC12CCCCC1(Br)[N+]([O-])=[N+]2[O-] (stereo not drawn) | 0.072 | 230 | 1
CC1(C)[N+]([O-])=[N+]([O-])C1(C)Br (stereo not drawn) | 0.052 | 1400 | 10
CC12CCCCC1(Cl)[N+]([O-])=[N+]2[O-] (stereo not drawn) | 0.0033 | > 6000 | 
